# Laboratory results: US7692030B2, “Conjugates of artemisinin-related endoperoxides and hydrazone derivatives for the treatment of cancer” (University of Washington, priority 2006, dated 2010)
# Tests used:
# HOP-62 = test: NCI DTP human tumor cell line screen (SRB); format: cell-based; settings: Non-Small Cell Lung Cancer, 10 μM, 48 h
# Procedure, shortened: (§1)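 Percentage growth is calculated from three absorbances (time zero, untreated control, treated) in an SRB assay. Tumor cells receive 10 μM compound for 48 h at 37 °C; values below zero indicate net cell loss relative to Tz.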
# MALME-3M = test: NCI DTP human tumor cell line screen (SRB); format: cell-based; settings: Melanoma, 10 μM, 48 h
# Procedure, shortened: as §1
# M14 = test: NCI DTP human tumor cell line screen (SRB); format: cell-based; settings: Melanoma, 10 μM, 48 h
# Procedure, shortened: as §1
# LOX IMVI = test: NCI DTP human tumor cell line screen (SRB); format: cell-based; settings: Melanoma, 10 μM, 48 h
# Procedure, shortened: as §1
# A498 = test: NCI DTP human tumor cell line screen (SRB); format: cell-based; settings: Renal Cancer, 10 μM, 48 h
# Procedure, shortened: as §1
# HT29 = test: NCI DTP human tumor cell line screen (SRB); format: cell-based; settings: Colon Cancer, 10 μM, 48 h
# Procedure, shortened: as §1
# NCI-H322M = test: NCI DTP human tumor cell line screen (SRB); format: cell-based; settings: Non-Small Cell Lung Cancer, 10 μM, 48 h
# Procedure, shortened: as §1
# SR = test: NCI DTP human tumor cell line screen (SRB); format: cell-based; settings: Leukemia, 10 μM, 48 h
# Procedure, shortened: as §1
# NCI/ADR-RES = test: NCI DTP human tumor cell line screen (SRB); format: cell-based; settings: Breast Cancer, 10 μM, 48 h
# Procedure, shortened: as §1
# SW-620 = test: NCI DTP human tumor cell line screen (SRB); format: cell-based; settings: Colon Cancer, 10 μM, 48 h
# Procedure, shortened: as §1
# MDA-MB-231/ATCC = test: NCI DTP human tumor cell line screen (SRB); format: cell-based; settings: Breast Cancer, 10 μM, 48 h
# Procedure, shortened: as §1
# SK-MEL-28 = test: NCI DTP human tumor cell line screen (SRB); format: cell-based; settings: Melanoma, 10 μM, 48 h
# Procedure, shortened: as §1
# NCI-H522 = test: NCI DTP human tumor cell line screen (SRB); format: cell-based; settings: Non-Small Cell Lung Cancer, 10 μM, 48 h
# Procedure, shortened: as §1
# TK-10 = test: NCI DTP human tumor cell line screen (SRB); format: cell-based; settings: Renal Cancer, 10 μM, 48 h
# Procedure, shortened: as §1
# KM12 = test: NCI DTP human tumor cell line screen (SRB); format: cell-based; settings: Colon Cancer, 10 μM, 48 h
# Procedure, shortened: as §1
# CCRF-CEM = test: NCI DTP human tumor cell line screen (SRB); format: cell-based; settings: Leukemia, 10 μM, 48 h
# Procedure, shortened: as §1
# MCF7 = test: NCI DTP human tumor cell line screen (SRB); format: cell-based; settings: Breast Cancer, 10 μM, 48 h
# Procedure, shortened: as §1
# OVCAR-8 = test: NCI DTP human tumor cell line screen (SRB); format: cell-based; settings: Ovarian Cancer, 10 μM, 48 h
# Procedure, shortened: as §1
# HS 578T = test: NCI DTP human tumor cell line screen (SRB); format: cell-based; settings: Breast Cancer, 10 μM, 48 h
# Procedure, shortened: as §1
# RPMI-8226 = test: NCI DTP human tumor cell line screen (SRB); format: cell-based; settings: Leukemia, 10 μM, 48 h
# Procedure, shortened: as §1
# SF-268 = test: NCI DTP human tumor cell line screen (SRB); format: cell-based; settings: CNS Cancer, 10 μM, 48 h
# Procedure, shortened: as §1
# UACC-62 = test: NCI DTP human tumor cell line screen (SRB); format: cell-based; settings: Melanoma, 10 μM, 48 h
# Procedure, shortened: as §1
# HL-60(TB) = format: cell-based, human; settings: Leukemia, 10 μM, 48 h
# Protocol: The human tumor cell lines of the cancer screening panel were grown in RPMI 1640 medium containing 5% fetal bovine serum and 2 mM L-glutamine. For experimental screens, cells were inoculated into 96 well microtiter plates in 100 μL at plating densities ranging from 5,000 to 40,000 cells/well depending on the doubling time of individual cell lines. After cell inoculation, the microtiter plates were incubated at 37° C., 5% carbon dioxide, 95% air and 100% relative humidity for 24 hours prior to addition of the compounds.
# [1] = test system: approximately 60 human tumor cell lines; test: NCI DTP human tumor cell line screen, whole panel statistics; format: cell-based; settings: for inhibitory activities against cancer cells: DTP human tumor cell line screen, non-small cell lung, colon, breast, ovarian, leukemia, renal, melanoma, prostate, CNS cancer; for mean growth percent: mean over all cell lines tested; for mean growth percent / delta value (growth percent) / range (growth percent): 10 μM, 48 h; for delta value (growth percent) / range (growth percent): over all cell lines tested
# Protocol: Representative compounds of the invention, prepared as described in EXAMPLES 1-6, were submitted to the Developmental Therapeutics Program of the United States National Cancer Institute (NCl) to screen for anti-cancer activity. The anti-cancer activities of the six compounds were tested against approximately 60 human tumor cell lines representing leukemia, melanoma, and cancers of the lung, colon, breast, ovary, kidney, prostate, and brain. The following screening methodology was provided by the NCl. […] For experimental screens, cells were inoculated into 96 well microtiter plates in 100 μL at plating densities ranging from 5,000 to 40,000 cells/well depending on the doubling time of individual cell lines. After cell inoculation, the microtiter plates were incubated at 37° C., 5% carbon dioxide, 95% air and 100% relative humidity for 24 hours prior to addition of the compounds. After 24 hours of incubation, two plates of each cell line were fixed in situ with trichloroacetic acid (TCA) to represent a measurement of the cell population for each cell line at the time of compound addition (Tz). The compounds were solubilized in dimethyl sulfoxide at 400-fold the desired final maximum test concentration and stored frozen prior to use. At the time of drug addition, frozen aliquots of the compounds thawed and diluted with complete medium containing 50 μg/ml gentamicin. Aliquots of 100 μl of these different compound dilutions were added to the appropriate microtiter wells already containing 100 μl of medium, resulting in the required final compound concentration of 10 μM. Following compound addition, the plates were incubated for an additional 48 h at 37° C., 5% carbon dioxide, 95% air, and 100% relative humidity. For adherent cells, the assay was terminated by the addition of cold TCA. Cells were fixed in situ by the gentle addition of 50 μl of cold 50% (w/v) TCA (final concentration, 10% TCA) and incubated for 60 minutes at 4° C. The supernatant was discarded, and the plates were washed five times with tap water and air dried. Sulforhodamine B (SRB) solution (100 μl) at 0.4% (w/v) in 1% acetic acid was added to each well, and plates were incubated for 10 minutes at room temperature. After staining, unbound dye was removed by washing five times with 1% acetic acid and the plates were air dried. Bound stain was subsequently solubilized with 10 mM trizma base, and the absorbance was read on an automated plate reader at a wavelength of 515 nm. For suspension cells, the methodology was the same except that the assay was terminated by fixing settled cells at the bottom of the wells by gently adding 50 μl of 80% TCA (final concentration, 16% TCA). Using the three absorbance measurements [time zero, (Tz), control growth, (C), and test growth in the presence of compound (Ti)], the percentage growth was calculated at each of the compound concentrations levels. Percentage growth inhibition was calculated with the following algorithms: [(Ti−Tz)/(C−Tz)]×100 for concentrations for which Ti>/=Tz [(Ti−Tz)/Tz]×100 for concentrations for which Ti<Tz The results of the NCl in vitro anticancer screening with six compounds against various human tumor cell lines are presented below in Tables 2-7. […] The growth percent mean, delta, and range for each compound are given below.
# DU-145 = test: NCI DTP human tumor cell line screen (SRB); format: cell-based; settings: Prostate Cancer, 10 μM, 48 h
# Procedure, shortened: as §1
# IGROV1 = test: NCI DTP human tumor cell line screen (SRB); format: cell-based; settings: Ovarian Cancer, 10 μM, 48 h
# Procedure, shortened: as §1
# A549/ATCC = test: NCI DTP human tumor cell line screen (SRB); format: cell-based; settings: Non-Small Cell Lung Cancer, 10 μM, 48 h
# Procedure, shortened: as §1
# RXF 393 = test: NCI DTP human tumor cell line screen (SRB); format: cell-based; settings: Renal Cancer, 10 μM, 48 h
# Procedure, shortened: as §1
compound,measurement,setting,value
"CC1CCC2C(C)C(OCc3ccc(C(=O)NN=Cc4ccccc4O)cc3)OC3OC4(C)CCC1C32OO4 (stereo not shown) [ART-Phe-Sal, N′-(2-hydroxybenzylidene)-4-(dihydroxyartemisinin-methyl)-phenyl carbohydrazide]",Growth Percent,HOP-62,12.31%
same,Growth Percent,MALME-3M,16.70%
same,Growth Percent,M14,−37.45%
same,Growth Percent,LOX IMVI,1.55%
same,Growth Percent,A498,0.33%
same,Growth Percent,HT29,22.93%
same,Growth Percent,NCI-H322M,23.76%
same,Growth Percent,SR,−44.93%
same,Growth Percent,NCI/ADR-RES,21.55%
same,Growth Percent,SW-620,30.24%
same,Growth Percent,MDA-MB-231/ATCC,47.38%
same,Growth Percent,SK-MEL-28,22.75%
same,Growth Percent,NCI-H522,5.74%
same,Growth Percent,TK-10,20.96%
same,Growth Percent,KM12,23.72%
same,Growth Percent,CCRF-CEM,−19.45%
same,Growth Percent,MCF7,12.70%
same,Growth Percent,OVCAR-8,24.17%
same,Growth Percent,HS 578T,29.71%
same,Growth Percent,RPMI-8226,22.87%
same,Growth Percent,SF-268,10.84%
same,Growth Percent,UACC-62,−17.63%
same,Growth Percent,HL-60(TB),−54.70%
same,inhibitory activities against cancer cells,[1],inhibitory activities against several types of cancer cells
same,mean growth percent,[1],10.55%
same,delta value (growth percent),[1],67.26
same,range (growth percent),[1],112.98
"Cc1ncc(CO)c(C=NNC(=O)c2ccc(COC3OC4OC5(C)CCC6C(C)CCC(C3C)C46OO5)cc2)c1O (stereo not shown) [ART-Phe-Pyridoxal, N′-(5-hydroxy-3-hydroxymethyl-2-methyl-4-pyridylidene)-4-(dihydroxyartemisinin-methyl)-phenyl carbohydrazide]",Growth Percent,DU-145,−9.65%
same,Growth Percent,HOP-62,20.25%
same,Growth Percent,MALME-3M,−17.79%
same,Growth Percent,IGROV1,1.58%
same,Growth Percent,LOX IMVI,4.22%
same,Growth Percent,A498,−36.78%
same,Growth Percent,HT29,32.72%
same,Growth Percent,NCI-H322M,14.34%
same,Growth Percent,SR,−29.75%
same,Growth Percent,NCI/ADR-RES,44.16%
same,Growth Percent,SW-620,14.32%
same,Growth Percent,MDA-MB-231/ATCC,29.96%
same,Growth Percent,SK-MEL-28,−7.02%
same,Growth Percent,NCI-H522,38.92%
same,Growth Percent,A549/ATCC,26.36%
same,Growth Percent,TK-10,6.35%
same,Growth Percent,KM12,17.87%
same,Growth Percent,CCRF-CEM,2.34%
same,Growth Percent,RXF 393,35.07%
same,Growth Percent,MCF7,1.55%
same,Growth Percent,OVCAR-8,31.40%
same,Growth Percent,HS 578T,−15.69%
same,Growth Percent,RPMI-8226,9.56%
same,Growth Percent,SF-268,1.39%
same,Growth Percent,UACC-62,−8.10%
same,Growth Percent,HL-60(TB),−4.98%
same,inhibitory activities against cancer cells,[1],inhibitory activities against several types of cancer cells
same,mean growth percent,[1],7.85%
same,delta value (growth percent),[1],51.68
same,range (growth percent),[1],88.81
same,mean growth percent,[1]; summary text,7.85%
